Key:
Assay in all cases: Cell panel screen (CellTiter-Glo)
Assay type in all cases: cell-based, human
HGC-27 = HGC-27 (Stomach), 20 micromolar, 72 hrs
Method in brief: (§1)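 Cells grown in 10% FBS medium were seeded, left overnight at 37°C, then exposed to compound at 20 μM final for 72 h. Luminescent ATP read-out; percent growth inhibition taken relative to DMSO-treated controls after subtraction of cell-free background.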

BT-549 = BT-549 (Breast), 20 micromolar, 72 hrs
Method in brief: as §1

CW-2 = CW-2 (Colon), 20 micromolar, 72 hrs
Method in brief: as §1

NCI-H1694 = NCI-H1694 (Lung), 20 micromolar, 72 hrs
Method in brief: as §1

ZR-75-30 = ZR-75-30 (Breast), 20 micromolar, 72 hrs
Method in brief: as §1

Colo 205 = conditions: Colo 205, 20 micromolar, 72 hrs
Method in brief: as §1

A704 = A704 (Kidney), 20 micromolar, 72 hrs
Method in brief: as §1

CCF-STTG1 = CCF-STTG1 (Brain), 20 micromolar, 72 hrs
Method in brief: as §1

NCI-H28 = NCI-H28 (Lung), 20 micromolar, 72 hrs
Method in brief: as §1

HCC1599 = HCC1599 (Breast), 20 micromolar, 72 hrs
Method in brief: as §1

Bel-7402 = Bel-7402 (Liver), 20 micromolar, 72 hrs
Method in brief: as §1

NCI-H2347 = NCI-H2347 (Lung), 20 micromolar, 72 hrs
Method in brief: as §1

Panc 03.27 = Panc 03.27 (Pancreas), 20 micromolar, 72 hrs
Method in brief: as §1

NCI-H1623 = NCI-H1623 (Lung), 20 micromolar, 72 hrs
Method in brief: as §1

C3A = C3A (Liver), 20 micromolar, 72 hrs
Method in brief: as §1

NCI-H2405 = NCI-H2405 (Lung), 20 micromolar, 72 hrs
Method in brief: as §1

T47D = T47D (Breast), 20 micromolar, 72 hrs
Method in brief: as §1

SW13 = SW13 (Adrenal gland), 20 micromolar, 72 hrs
Method in brief: as §1

NCI-H1770 = NCI-H1770 (Lung), 20 micromolar, 72 hrs
Method in brief: as §1

HCC1395 = HCC1395 (Breast), 20 micromolar, 72 hrs
Method in brief: as §1

M059J = M059J (Brain), 20 micromolar, 72 hrs
Method in brief: as §1

NCI-H524 = NCI-H524 (Lung), 20 micromolar, 72 hrs
Method in brief: as §1

A498 = A498 (listed under Lung), 20 micromolar, 72 hrs
Method in brief: as §1

HPAF-II = HPAF-II (Pancreas), 20 micromolar, 72 hrs
Method in brief: as §1

J82 = J82 (Urinary bladder), 20 micromolar, 72 hrs
Method in brief: as §1

T98G = T98G (Brain), 20 micromolar, 72 hrs
Method in brief: as §1

HEC-1-A = HEC-1-A (Uterus), 20 micromolar, 72 hrs
Method in brief: as §1

HCC1569 = HCC1569 (Breast), 20 micromolar, 72 hrs
Method in brief: as §1

BT-474 = BT-474 (Breast), 20 micromolar, 72 hrs
Method in brief: as §1

C8166 = C8166 (Leukemia), 20 micromolar, 72 hrs
Method in brief: as §1

TCCSUP = TCCSUP (Urinary bladder), 20 micromolar, 72 hrs
Method in brief: as §1

ChaGo-K-1 = ChaGo-K-1 (Lung), 20 micromolar, 72 hrs
Method in brief: as §1

HCC1937 = HCC1937 (Breast), 20 micromolar, 72 hrs
Method in brief: as §1

HT-1197 = HT-1197 (Urinary bladder), 20 micromolar, 72 hrs
Method in brief: as §1

MSTO-211-H = MSTO-211-H (Lung), 20 micromolar, 72 hrs
Method in brief: as §1

RL95 = RL95 (Uterus), 20 micromolar, 72 hrs
Method in brief: as §1

SMILES	Percent Inhibition (HGC-27)	Percent Inhibition (BT-549)	Percent Inhibition (CW-2)	Percent Inhibition (NCI-H1694)	Percent Inhibition (ZR-75-30)	Percent Inhibition (Colo 205)	Percent Inhibition (A704)	Percent Inhibition (CCF-STTG1)	Percent Inhibition (NCI-H28)	Percent Inhibition (HCC1599)	Percent Inhibition (Bel-7402)	Percent Inhibition (NCI-H2347)	Percent Inhibition (Panc 03.27)	Percent Inhibition (NCI-H1623)	Percent Inhibition (C3A)	Percent Inhibition (NCI-H2405)	Percent Inhibition (T47D)	Percent Inhibition (SW13)	Percent Inhibition (NCI-H1770)	Percent Inhibition (HCC1395)	further results
CC(C)=CCc1c2c(c(O)c3c1O[C@]14C(=C[C@@H]5C[C@H]1C(C)(C)O[C@@]4(C/C=C(\C)CO)C5=O)C3=O)C=CC(C)(C)O2 [GB18]	99%	99%	99%	99%	99%	99%	99%	99%	98%	99%	99%	97%	99%	99%	99%	99%	99%	99%	99%	99%	Percent Inhibition (M059J): 99%; Percent Inhibition (NCI-H524): 100%; Percent Inhibition (A498): 93%; Percent Inhibition (HPAF-II): 99%; Percent Inhibition (J82): 99%; Percent Inhibition (T98G): 99%; Percent Inhibition (HEC-1-A): 99%; Percent Inhibition (HCC1569): 99%; Percent Inhibition (BT-474): 99%; Percent Inhibition (C8166): 99%; Percent Inhibition (TCCSUP): 99%; Percent Inhibition (ChaGo-K-1): 99%; Percent Inhibition (HCC1937): 98%; Percent Inhibition (HT-1197): 99%; Percent Inhibition (MSTO-211-H): 99%; Percent Inhibition (RL95): 99%
CC(C)=CCc1c(O)cc2oc3cc(O)c(O)c(CC=C(C)C)c3c(=O)c2c1O [Ge9]	97%	97%	99%	99%	99%	98%	96%	99%	97%	95%	99%	89%	97%	91%	81%	96%	94%	-3%	98%	98%	Percent Inhibition (M059J): -17%; Percent Inhibition (NCI-H524): 97%; Percent Inhibition (A498): 98%; Percent Inhibition (HPAF-II): 96%; Percent Inhibition (J82): 97%; Percent Inhibition (T98G): 98%; Percent Inhibition (HEC-1-A): 95%; Percent Inhibition (HCC1569): 97%; Percent Inhibition (BT-474): 97%; Percent Inhibition (C8166): 99%; Percent Inhibition (TCCSUP): 99%; Percent Inhibition (ChaGo-K-1): 97%; Percent Inhibition (HCC1937): 98%; Percent Inhibition (HT-1197): 97%; Percent Inhibition (MSTO-211-H): 98%; Percent Inhibition (RL95): 98%
O=c1c2ccc(O)c(O)c2oc2cccc(O)c12 [gl-23]	-6%	-16%	-3%	-9%	16%	-5%	-11%	-1%	-10%	18%	-16%	-8%	-5%	0%	-1%	-14%	-4%	-10%	-11%	-11%	Percent Inhibition (M059J): -5%; Percent Inhibition (NCI-H524): -30%; Percent Inhibition (A498): 3%; Percent Inhibition (HPAF-II): -5%; Percent Inhibition (J82): -2%; Percent Inhibition (T98G): -2%; Percent Inhibition (HEC-1-A): -6%; Percent Inhibition (HCC1569): 0%; Percent Inhibition (BT-474): -16%; Percent Inhibition (C8166): -1%; Percent Inhibition (TCCSUP): -5%; Percent Inhibition (ChaGo-K-1): -22%; Percent Inhibition (HCC1937): -1%; Percent Inhibition (HT-1197): -11%; Percent Inhibition (MSTO-211-H): -25%; Percent Inhibition (RL95): -20%
COc1cc(O)c2c(=O)c3cc(CC=C(C)C)c(O)c(O)c3oc2c1CC=C(C)C [Go-15]	98%	87%	96%	97%	83%	89%	92%	84%	74%	62%	64%	51%	86%	78%	60%	50%	70%	95%	75%	25%	Percent Inhibition (M059J): 88%; Percent Inhibition (NCI-H524): 98%; Percent Inhibition (A498): 78%; Percent Inhibition (HPAF-II): 72%; Percent Inhibition (J82): 74%; Percent Inhibition (T98G): 98%; Percent Inhibition (HEC-1-A): 67%; Percent Inhibition (HCC1569): 86%; Percent Inhibition (BT-474): 82%; Percent Inhibition (C8166): 93%; Percent Inhibition (TCCSUP): 88%; Percent Inhibition (ChaGo-K-1): 11%; Percent Inhibition (HCC1937): 85%; Percent Inhibition (HT-1197): 51%; Percent Inhibition (MSTO-211-H): 69%; Percent Inhibition (RL95): 94%
C=C(C)C(O)Cc1c(O)cc2oc3cc(O)c(O)c(CC=C(C)C)c3c(=O)c2c1O (stereo not drawn) [bn-17, Bannaxanthone B]	62%	34%	68%	96%	81%	57%	19%	43%	69%	84%	57%	23%	44%	20%	39%	7%	45%	52%	12%	83%	Percent Inhibition (M059J): 48%; Percent Inhibition (NCI-H524): -19%; Percent Inhibition (A498): 54%; Percent Inhibition (HPAF-II): 14%; Percent Inhibition (J82): 52%; Percent Inhibition (T98G): 94%; Percent Inhibition (HEC-1-A): 46%; Percent Inhibition (HCC1569): 51%; Percent Inhibition (BT-474): 27%; Percent Inhibition (C8166): 71%; Percent Inhibition (TCCSUP): 79%; Percent Inhibition (ChaGo-K-1): 73%; Percent Inhibition (HCC1937): 58%; Percent Inhibition (HT-1197): 44%; Percent Inhibition (MSTO-211-H): 70%; Percent Inhibition (RL95): 45%
